{
  "source": "paper PMC11375437",
  "about": "“Selective labelling of GBA2 in cells with fluorescent β-D-arabinofuranosyl cyclitol aziridines” (Chemical Science, 2024)",
  "molecular_target": "T1, GBA2 (Homo sapiens, UniProt Q9HCG7)",
  "T1 sequence (Q9HCG7 1-927)": "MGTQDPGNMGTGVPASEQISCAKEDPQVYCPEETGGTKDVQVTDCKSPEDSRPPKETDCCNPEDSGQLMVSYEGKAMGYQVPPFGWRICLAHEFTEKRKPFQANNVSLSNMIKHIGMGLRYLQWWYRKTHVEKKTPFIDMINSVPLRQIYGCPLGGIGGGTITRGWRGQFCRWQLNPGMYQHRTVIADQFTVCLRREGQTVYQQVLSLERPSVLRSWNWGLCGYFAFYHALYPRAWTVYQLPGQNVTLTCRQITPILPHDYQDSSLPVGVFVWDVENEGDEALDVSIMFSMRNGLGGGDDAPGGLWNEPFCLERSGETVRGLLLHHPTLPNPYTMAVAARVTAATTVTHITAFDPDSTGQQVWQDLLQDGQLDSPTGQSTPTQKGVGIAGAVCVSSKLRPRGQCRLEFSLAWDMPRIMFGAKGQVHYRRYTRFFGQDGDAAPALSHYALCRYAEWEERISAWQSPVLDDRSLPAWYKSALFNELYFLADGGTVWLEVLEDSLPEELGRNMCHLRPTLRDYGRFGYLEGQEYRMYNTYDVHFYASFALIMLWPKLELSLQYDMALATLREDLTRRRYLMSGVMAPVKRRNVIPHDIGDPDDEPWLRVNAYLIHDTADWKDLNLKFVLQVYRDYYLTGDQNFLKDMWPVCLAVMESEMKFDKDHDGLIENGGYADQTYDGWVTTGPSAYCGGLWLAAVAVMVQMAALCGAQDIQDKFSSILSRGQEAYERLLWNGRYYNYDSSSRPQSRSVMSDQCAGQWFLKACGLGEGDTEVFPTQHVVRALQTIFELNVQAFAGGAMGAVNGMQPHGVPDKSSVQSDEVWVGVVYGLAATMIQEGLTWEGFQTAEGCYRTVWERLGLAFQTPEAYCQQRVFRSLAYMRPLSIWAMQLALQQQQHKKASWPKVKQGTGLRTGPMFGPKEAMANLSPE",
  "experiment": "In situ labelling of wild-type HEK293T cells, GBA2",
  "assay_type": "cell-based",
  "parameters": "endogenous in cells; host or cells: wild-type HEK293T",
  "conditions": "wild-type HEK293T intact cells; 24 h incubation",
  "protocol": "Importantly, the GBA2 selectivity of β-D-Araf ABPs 3–5 was maintained during in situ labelling of wild-type HEK293T cells (ESI Fig. S9 ^†). […] Even after 24 h incubation, similar results were obtained: ABP 4 selectively labelled GBA2 at 10 nM, with only slight concomitant GBA1 labelling at concentrations higher than 100 nM (ESI Fig. S10 ^†). Selective GBA2 labelling by ABP 3 and 4 finally was also observed in human retinal pigment epithelial-1 cells (Fig. 5C).\nFigure S9. Fluorescent gel images of in situ labelling of wild-type HEK293T cells by β-D-Araf aziridine ABPs 3-5.\nβ-D-Araf ABPs were firstly incubated with intact wild-type HEK293T cells for 1 or 2.5 h (1st incubation) and then cells were harvested. […]\n2.12 Reactivity of β-D-Araf aziridines towards GBA2 orthologue in other species β-D-Araf aziridine ABP 3-5 or ABP 7 was incubated with homogenates of zebrafish (Danio rerio) larvae or mice brain for 1 h at 37 °C. […] The zebrafish homogenates were passed through a desalting column (in the same way as described for the irreversibility evaluation above) to remove interference from biological pigments when scanning at λEX 473 nm and λEM ≥ 510 nm for BODIPY green fluorescence. […]",
  "data": [
    {"compound": "COc1ccc(C2=[N+]3C(=C(CCCCc4cn(CCCCCCCCN5[C@@H]6[C@H](CO)[C@@H](O)[C@H](O)[C@@H]65)nn4)c4ccc(-c5ccc(OC)cc5)n4[B-]3(F)F)C=C2)cc1", "note": "(stereo partly shown) [ABP 4]", "values": [
      {"measurement": "Concentration at which GBA2 is selectively labelled in situ", "result": 10, "unit": "nM"}
    ]}
  ]
}
